We go through five compounds from patent publication US4177287A, “Pharmaceutical compositions of N1 -acyl-N2 -phenyldiaminopropanols and process for their preparation” (Kali-Chemie Pharma GmbH, priority 1977, dated 1979).

Data set [1] relates to indomethacine-induced ulcers. Briefly: Effectiveness against indomethacine-induced ulcers in the rat. Format: in vivo. As to conditions: for inhibition at 68 mg/kg: dosage 68 mg/kg p.o. As for the experimental part: To at least 6 male rats, having a body-weight of from 170 to 220 g, dosages of the test compounds are administered orally in an amount of 0.5 ml of a suspension medium per 100 g animal body-weight. The animals of the blank control group received the corresponding amount by volume of the suspension medium only. One hour after application of the test compounds, a dosage of 20 mg per kg of indomethacine contained in an amount of 0.5 ml of a suspension per 100 g animal body-weight, are orally applied to each animal for producing ulcers. 24 hours after the application of indomethacine, the animals are sacrificed.
The mean value and the standard deviation of the numbers of ulcers is calculated and subsequently the inhibiting activity of the test compounds and a standard compound are calculated as percent inhibition compared with the blank control group.

In another data set the test system is secretion in the stomach. Briefly: Effect on the secretion in the stomach of narcotized rats (determination of the pH-value). Format: in vivo, rat. To be noted: for inhibition at 300 mg/kg: dosage 300 mg/kg p.o., narcotized rat, acetylcholine 10 mg/kg i.p. control = 100. As for the experimental part:
3. Effect on the secretion in the stomach of narcotized rats (determinationof the pH-value)
The test is performed on narcotized (urethane narcosis) male rats, having a body weight of from 200-230 g. For this purpose N/4000-sodium hydroxide solution is perfused into the stomachs of rats at a rate of 1 ml per minute by means of a cardia- and pylorus-catheter. The pH value of the perfusate, which leaves the stomach by way of the pylorus catheter, is determined by means of a one-rod measuring system, and is continuously registered.
In order to perform a comparative control test, after a pre-run period of 20 minutes, 10 mg per kg of acetylcholine are applied intraperitoneously. The resulting comparative control value is defined as being 100.
For evaluation, the surface-integral is calculated numerically with the aid of the rule of Simpson. The degree of inhibition of the secretion is calculated from the difference between the surfaces before and after the application of the test compound.

For the next data set, the system named is ulcer. To be noted: background; cited from earlier work.
The nature of another data set: in vivo. As to conditions: mouse, po, single application, 7-day, unfed white NMRI-mice, read-out: Toxicity LD50 p.o. As to the method:
The acute 7-day-toxicity is determined after a single application per os in white NMRI-mice which had not been fed. The calculation of the LD50 is carried out by probitanalysis by means of electronic data processing (see L. Cavalli-Sforza, Gustav Fischer-Verlag, Stuttgart (1964), Grundbegriffe der Biometrie, pp. 153).

Where [2] appears, read: po, rat, indomethacine 20 mg/kg p.o., 24 hours.

Structures can show the parent of a compound that is named as a salt. Some results are limits rather than exact numbers.

On to `CN1[C@@H]2CC[C@H]1C[C@@H](OC(=O)C(CO)c1ccccc1)C2` (stereo partly drawn) [A, atropine sulfate, reference compound], for which the “effect on the ulcer (in words)” value in data set [1] (at the low dosage that inhibits secretion (footnote to Table 1)) was “does not have a sufficiently”. Also, the inhibition at 12 mg/kg in data set [1] (po, dosage 12 mg/kg p.o., rat, indomethacine 20 mg/kg p.o., 24 hours) amounted to 26%. Further, in the data set with secretion in the stomach (Rattus norvegicus, ip, read-out: Inhibition of secretion in the stomach, % inhibition), the inhibition at 0.5 mg/kg turned out to be 100%. In the data set with secretion in the stomach (at a low dosage already (footnote to Table 1)), the “inhibition of the secretion in the stomach (in words)” value is recorded as “strong inhibition”. Besides, in the data set with ulcer, the “side effects in ulcer therapy (in words)” value is “side effects which occur already at low dosages” and the “success in ulcer therapy (in words)” value is recorded as “have not succeeded in ulcer therapy”.
Turning to `CN(CC(O)CNC(=O)c1ccco1)c1ccc(Cl)cc1` (stereo not drawn) [Compound 4, N1-(2-furoyl)-N2-methyl-N2-(4-chlorophenyl)-1,3-diaminopropan-2-ol], in “in vivo”, the median lethal dose (LD50) at 168 h was above 1470 mg/kg. Moreover, the inhibition at 68 mg/kg in data set [1] (setting [2]) stood at 44%. Besides, in the data set with secretion in the stomach, the inhibition at 300 mg/kg was determined as 0%.
The corresponding values for `COc1ccc(C(=O)NCC(O)CN(C)c2ccc(Cl)cc2)cc1OC` (stereo not drawn) [Compound 1, N1-(3,4-dimethoxybenzoyl)-N2-methyl-N2-(4-chlorophenyl)-1,3-diaminopropan-2-ol] are above 6810 mg/kg, 44% and 0%.
`CN(CC(O)CNC(=O)c1ccccc1F)c1ccc(Cl)cc1` (stereo not drawn) [Compound 2, N1-(2-fluorobenzoyl)-N2-methyl-N2-(4-chlorophenyl)-1,3-diaminopropan-2-ol]: the 50% lethal dose (LD50) at 168 h in “in vivo” is above 1470 mg/kg. Further, in data set [1] (setting [2]), the inhibition at 68 mg/kg was 49%. The compound also came in with an inhibition at 300 mg/kg in the data set with secretion in the stomach of 0%.
For `CN(CC(O)CNC(=O)c1ccccc1C(F)(F)F)c1ccc(Cl)cc1` (stereo not drawn) [Compound 3, N1-(2-trifluoromethylbenzoyl)-N2-methyl-N2-(4-chlorophenyl)-1,3-diaminopropan-2-ol], the LD50 at 168 h in “in vivo” was above 1470 mg/kg. The same compound showed an inhibition at 75 mg/kg in data set [1] (po, dosage 75 mg/kg p.o., rat, indomethacine 20 mg/kg p.o., 24 hours) of 40%. Further, in the data set with secretion in the stomach, the inhibition at 300 mg/kg came out at 0%.

For orientation: inhibition means the drop in the measured response relative to a control, in per cent. A word on the LD50: it is the dose at which mortality reaches 50%.
